Experimental data: ChEMBL document CHEMBL1165990, “Semi-synthetic analogues of thiostrepton delimit the critical nature of tail region modifications in the control of protein biosynthesis and antibacterial activity” (Bioorg Med Chem, 2010)
The source made the active and inactive calls. No cut-off for these calls is given here.

Assays:
[1] = system: Escherichia coli; experiment: Antibacterial activity against Escherichia coli assessed as inhibition of protein synthesis after 60 mins by luminescence assay; assay type: functional, organism-based
[2] = Aqueous solubility of the compound; assay type: physicochemical; details: buffer
[3] = system: Staphylococcus aureus; experiment: Antibacterial activity against Staphylococcus aureus ATCC 6338 by NCCLS method; assay type: functional
[4] = system: Bacillus subtilis; experiment: Antibacterial activity against Bacillus subtilis ATCC 6633 by NCCLS method; assay type: functional
[5] = system: Escherichia coli; experiment: Antibacterial activity against Escherichia coli assessed as inhibition of protein synthesis at 0.1 to 0.4 uM after 60 mins by luminescence assay; assay type: functional, organism-based
[6] = system: Escherichia coli; experiment: Antibacterial activity against Escherichia coli by NCCLS method; assay type: functional
[7] = system: Escherichia coli; experiment: Antibacterial activity against Escherichia coli by disk diffusion assay; assay type: functional
[8] = system: Staphylococcus aureus; experiment: Antibacterial activity against Staphylococcus aureus ATCC 6338 by disk diffusion assay; assay type: functional
[9] = system: Bacillus subtilis; experiment: Antibacterial activity against Bacillus subtilis ATCC 6633 by disk diffusion assay; assay type: functional
[10] = system: Escherichia coli; experiment: Antibacterial activity against Escherichia coli assessed as inhibition of protein synthesis at 0.01 to 0.96 uM after 60 mins by luminescence assay; assay type: functional, organism-based

Row | MIC [3] [µg/mL] | MIC [4] [µg/mL] | MIC [6] [µg/mL] | Compound | inhibition [5] | further results
1 | ≤ 2 | ≤ 8 | ≥ 128 | C=C(NC(=O)c1csc(C2=N[C@@H]3c4csc(n4)[C@H]4NC(=O)c5csc(n5)[C@H]([C@](C)(O)[C@H](C)O)NC(=O)[C@H]5CSC(=N5)/C(=C/C)NC(=O)[C@H]([C@@H](C)O)NC(=O)c5csc(n5)[C@]3(CC2)NC(=O)[C@H](C)NC(=O)C(=C)NC(=O)[C@H](C)NC(=O)[C@H]([C@@H](C)CC)N[C@@H]2C=Cc3c([C@H](C)O)cc(nc3[C@H]2O)C(=O)O[C@@H]4C)n1)C(=O)NC(CSCCS(=O)(=O)O)C(N)=O (stereo partly drawn) | Active | inhibition [1]: Dose-dependent effect; solubility [2]: Soluble
2 |  |  |  | C=C(NC(=O)c1csc(C2=N[C@@H]3c4csc(n4)[C@H]4NC(=O)c5csc(n5)[C@H]([C@](C)(O)[C@H](C)O)NC(=O)[C@H]5CSC(=N5)/C(=C/C)NC(=O)[C@H]([C@@H](C)O)NC(=O)c5csc(n5)[C@]3(CC2)NC(=O)[C@H](C)NC(=O)C(=C)NC(=O)[C@H](C)NC(=O)[C@H]([C@@H](C)CC)N[C@@H]2C=Cc3c([C@H](C)O)cc(nc3[C@H]2O)C(=O)O[C@@H]4C)n1)C(=O)NC(CS[C@@H]1O[C@H](CO)[C@@H](O)[C@H](O)[C@H]1O)C(N)=O (stereo partly drawn) |  | MIC [7]: ≥ 50 µg/mL; MIC [8]: ≥ 50 µg/mL; MIC [9]: ≥ 50 µg/mL
3 |  |  |  | C=C(NC(=O)c1csc(C2=N[C@@H]3c4csc(n4)[C@H]4NC(=O)c5csc(n5)[C@H]([C@](C)(O)[C@H](C)O)NC(=O)[C@H]5CSC(=N5)/C(=C/C)NC(=O)[C@H]([C@@H](C)O)NC(=O)c5csc(n5)[C@]3(CC2)NC(=O)[C@H](C)NC(=O)C(=C)NC(=O)[C@H](C)NC(=O)[C@H]([C@@H](C)CC)N[C@@H]2C=Cc3c([C@H](C)O)cc(nc3[C@H]2O)C(=O)O[C@@H]4C)n1)C(=O)NC(CSC[C@@H](C)C(=O)N1CCC[C@H]1C(=O)O)C(N)=O (stereo in doubt; 3) | Active | 
4 | ≤ 32 | ≤ 32 | ≥ 128 | C=C(NC(=O)c1csc(C2=N[C@@H]3c4csc(n4)[C@H]4NC(=O)c5csc(n5)[C@H]([C@](C)(O)[C@H](C)O)NC(=O)[C@H]5CSC(=N5)/C(=C/C)NC(=O)[C@H]([C@@H](C)O)NC(=O)c5csc(n5)[C@]3(CC2)NC(=O)[C@H](C)NC(=O)C(=C)NC(=O)[C@H](C)NC(=O)[C@H]([C@@H](C)CC)N[C@@H]2C=Cc3c([C@H](C)O)cc(nc3[C@H]2O)C(=O)O[C@@H]4C)n1)C(=O)NC(CSC[C@@H](C)C(=O)N1CCC[C@H]1C(=O)O)C(N)=O (stereo in doubt; 4) [listing 1 of 2 here] |  | 
5 |  |  |  | C=C(NC(=O)c1csc(C2=N[C@@H]3c4csc(n4)[C@H]4NC(=O)c5csc(n5)[C@H]([C@](C)(O)[C@H](C)O)NC(=O)[C@H]5CSC(=N5)/C(=C/C)NC(=O)[C@H]([C@@H](C)O)NC(=O)c5csc(n5)[C@]3(CC2)NC(=O)[C@H](C)NC(=O)C(=C)NC(=O)[C@H](C)NC(=O)[C@H]([C@@H](C)CC)N[C@@H]2C=Cc3c([C@H](C)O)cc(nc3[C@H]2O)C(=O)O[C@@H]4C)n1)C(=O)NC(CSC[C@@H](C)C(=O)N1CCC[C@H]1C(=O)O)C(N)=O (stereo in doubt; 4) [listing 2 of 2 here] | Active | 
6 | ≤ 0.0625 | ≤ 0.25 | ≥ 32 | C=C(NC(=O)C(=C)NC(=O)c1csc(C2=N[C@@H]3c4csc(n4)[C@H]4NC(=O)c5csc(n5)[C@H]([C@](C)(O)[C@@H](C)O)NC(=O)[C@H]5CSC(=N5)/C(=C/C)NC(=O)[C@H]([C@@H](C)O)NC(=O)c5csc(n5)[C@]3(CC2)NC(=O)[C@H](C)NC(=O)C(=C)NC(=O)[C@H](C)NC(=O)[C@H]([C@@H](C)CC)N[C@@H]2C=Cc3c([C@H](C)O)cc(nc3[C@H]2O)C(=O)O[C@@H]4C)n1)C(N)=O [THIOSTREPTON] |  | inhibition [10]: Active
